# Active and inactive are the calls of the source.
# Key:
# HEK293 [1] = experiment: NOD1 signaling inhibitors, primary screen, cell-based, luminescence, uHTS (AID 1578); format: functional; settings: Homo sapiens
# HEK293 [2] = experiment: cells; format: functional, cell-based; settings: Homo sapiens
# HEK293 [3] = experiment: cells; format: functional, cell-based; settings: Homo sapiens; remark: listed apart in the source
# HEK293 [4] = experiment: NOD2 signaling inhibitors in MDP-stimulated cells, cell-based, uHTS, luminescence (AID 2001); format: functional; settings: Homo sapiens
# [5] = inhibitors of firefly luciferase expression or activity, dose response, H4 neuroglioma cells, luminescence (AID 1990); format: functional, cell-based
# [6] = Luminescence Cell-Based Dose Response HTS to Identify Inhibitors of 5'UTR Stem-Loop Driven Prion Protein mRNA Translation in H4 Neuroglioblastoma Cells. [Related pubchem assays: 1827 (Project Summary), 1813 (Primary HTS)]; format: functional
# [7] = inhibitors of SNCA 5'UTR-driven reporter translation, confirmation, H4 neuroglioma cells, luminescence (AID 1988); format: functional, cell-based
# HEK293 [8] = experiment: cells; settings: Homo sapiens
# HEK293 [9] = experiment: cells; settings: Homo sapiens; remark: listed apart in the source
# Cytochrome P450 2D6 = Cytochrome P450 2D6 (Homo sapiens, UniProt P10635);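 note: CYP2D6 member of a cytochrome P450 panel assay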
# [10] = target: T1, Heat shock factor protein 1 (Mus musculus, UniProt P38532); experiment: inhibition of MG132-induced HSE-luciferase signal, confirmation, cell-based, NIH3T3, luminescence, dose retest (AID 2382); format: functional;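 note: NIH3T3 fibroblasts with HSF1-driven luciferase reporter stressed by proteasome inhibitor MG132; luminescence from HSF1-driven luciferase expression after 8 hours of MG132 stress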
# T1 sequence (P38532 whole entry): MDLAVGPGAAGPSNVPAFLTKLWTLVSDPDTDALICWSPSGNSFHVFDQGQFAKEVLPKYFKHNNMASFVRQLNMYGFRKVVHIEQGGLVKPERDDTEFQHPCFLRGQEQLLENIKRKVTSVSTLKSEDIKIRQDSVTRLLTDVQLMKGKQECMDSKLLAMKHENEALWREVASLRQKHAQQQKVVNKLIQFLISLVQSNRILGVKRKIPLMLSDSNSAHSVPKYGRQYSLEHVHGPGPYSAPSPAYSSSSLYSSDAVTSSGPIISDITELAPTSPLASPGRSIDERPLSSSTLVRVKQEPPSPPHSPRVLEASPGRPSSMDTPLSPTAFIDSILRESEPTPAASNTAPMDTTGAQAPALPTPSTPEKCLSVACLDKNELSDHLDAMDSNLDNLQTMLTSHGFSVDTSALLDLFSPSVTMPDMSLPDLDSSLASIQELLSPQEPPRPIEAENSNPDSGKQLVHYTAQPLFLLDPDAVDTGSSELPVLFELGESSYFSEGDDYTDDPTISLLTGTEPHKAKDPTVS
# CHO-K1 = experiment: Counterscreen for antagonists of the orexin 1 receptor (OX1R; HCRTR1): Homogeneous time resolved fluorescence (HTRF)-based cell-based dose response assay to identify antagonists of the parental CHO-K1 cell line. [Related pubchem assays (depositor defined):AID434989, AID435008, AID463079, AID485270, AID492963, AID492964, AID492965, AID493232, AID504699, AID504701]; format: functional; settings: Cricetulus griseus;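 note: potency for inhibition of ATP-stimulated IP1 production as antagonists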
# [11] = Counterscreen for antagonists of the orexin 1 receptor (OX1R; HCRTR1): Fluorescence-based cell-based high throughput dose response assay to identify antagonists of the parental CHO cell line. [Related pubchem assays (depositor defined):AID434989, AID435008, AID463079, AID485270, AID492963, AID492964, AID492965, AID493232, AID504699, AID504701]; format: functional
# [12] = target: T2, Orexin/Hypocretin receptor type 1 (Homo sapiens, UniProt O43613); experiment: Homogeneous Time Resolved Fluorescence (HTRF)-based cell-based high throughput dose response assay for antagonists of the orexin 1 receptor (OX1R; HCRTR1). [Related pubchem assays (depositor defined):AID434989, AID435008, AID463079, AID485270, AID492963, AID492964, AID492965, AID493232, AID504717, AID504718]; format: functional
# T2 sequence (O43613 whole entry): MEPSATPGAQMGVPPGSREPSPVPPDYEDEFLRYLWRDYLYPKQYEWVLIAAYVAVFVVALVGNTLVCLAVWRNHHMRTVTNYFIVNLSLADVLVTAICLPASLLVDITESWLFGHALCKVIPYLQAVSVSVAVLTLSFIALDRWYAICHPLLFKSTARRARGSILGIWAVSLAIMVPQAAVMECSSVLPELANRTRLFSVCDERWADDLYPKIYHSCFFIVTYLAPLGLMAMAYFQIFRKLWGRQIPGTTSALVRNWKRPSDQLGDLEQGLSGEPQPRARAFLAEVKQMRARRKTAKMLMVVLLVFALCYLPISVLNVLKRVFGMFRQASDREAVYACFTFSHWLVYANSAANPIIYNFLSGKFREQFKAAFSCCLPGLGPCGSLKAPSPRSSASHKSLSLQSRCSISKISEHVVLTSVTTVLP
# [13] = target: T2, Orexin/Hypocretin receptor type 1; experiment: Fluorescence-based cell-based high throughput dose response assay for antagonists of the orexin 1 receptor (OX1R; HCRTR1). [Related pubchem assays (depositor defined):AID434989, AID435008, AID463079, AID485270, AID492963, AID492964, AID492965, AID493232, AID504717, AID504718]; format: functional
# [14] = target: T3, Replicative DNA helicase DnaB (Mycobacterium tuberculosis, UniProt P9WMR3); experiment: DnaB intein splicing inhibitors, dose response, biochemical, cell-free fluorescence (AID 449749); format: functional
# T3 sequence (P9WMR3 whole entry): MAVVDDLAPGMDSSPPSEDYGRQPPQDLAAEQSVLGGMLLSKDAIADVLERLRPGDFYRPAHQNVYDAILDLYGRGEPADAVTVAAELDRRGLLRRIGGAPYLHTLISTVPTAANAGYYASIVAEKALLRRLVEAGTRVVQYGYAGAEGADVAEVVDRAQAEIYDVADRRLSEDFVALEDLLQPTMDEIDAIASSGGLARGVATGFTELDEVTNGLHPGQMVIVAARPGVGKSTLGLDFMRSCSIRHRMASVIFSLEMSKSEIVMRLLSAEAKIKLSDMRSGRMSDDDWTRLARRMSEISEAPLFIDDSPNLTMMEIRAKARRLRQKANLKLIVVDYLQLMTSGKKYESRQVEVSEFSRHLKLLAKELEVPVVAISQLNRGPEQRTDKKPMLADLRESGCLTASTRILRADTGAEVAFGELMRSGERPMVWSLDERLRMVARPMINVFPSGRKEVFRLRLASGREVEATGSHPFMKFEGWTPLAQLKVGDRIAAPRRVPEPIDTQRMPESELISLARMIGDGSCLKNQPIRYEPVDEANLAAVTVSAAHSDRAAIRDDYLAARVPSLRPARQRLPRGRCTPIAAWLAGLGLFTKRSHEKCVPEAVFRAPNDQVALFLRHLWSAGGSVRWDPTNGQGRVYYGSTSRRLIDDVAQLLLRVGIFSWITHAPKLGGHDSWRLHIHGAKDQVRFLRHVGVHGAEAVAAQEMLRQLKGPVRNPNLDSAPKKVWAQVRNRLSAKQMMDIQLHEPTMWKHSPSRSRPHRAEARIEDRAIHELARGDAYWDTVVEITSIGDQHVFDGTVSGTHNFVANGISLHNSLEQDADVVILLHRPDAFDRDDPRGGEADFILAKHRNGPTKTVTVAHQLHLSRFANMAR
# Protein RecA = target: T4, Protein RecA (Mycobacterium tuberculosis, UniProt P9WHJ3); experiment: Fluorescence Cell-Free Homogeneous Dose Retest to Identify Inhibitors of RecA-Intein Splicing Activity. [Related pubchem assays (depositor defined):AID2097, AID2223, AID489010, AID492950]; format: functional
# T4 sequence (P9WHJ3 whole entry): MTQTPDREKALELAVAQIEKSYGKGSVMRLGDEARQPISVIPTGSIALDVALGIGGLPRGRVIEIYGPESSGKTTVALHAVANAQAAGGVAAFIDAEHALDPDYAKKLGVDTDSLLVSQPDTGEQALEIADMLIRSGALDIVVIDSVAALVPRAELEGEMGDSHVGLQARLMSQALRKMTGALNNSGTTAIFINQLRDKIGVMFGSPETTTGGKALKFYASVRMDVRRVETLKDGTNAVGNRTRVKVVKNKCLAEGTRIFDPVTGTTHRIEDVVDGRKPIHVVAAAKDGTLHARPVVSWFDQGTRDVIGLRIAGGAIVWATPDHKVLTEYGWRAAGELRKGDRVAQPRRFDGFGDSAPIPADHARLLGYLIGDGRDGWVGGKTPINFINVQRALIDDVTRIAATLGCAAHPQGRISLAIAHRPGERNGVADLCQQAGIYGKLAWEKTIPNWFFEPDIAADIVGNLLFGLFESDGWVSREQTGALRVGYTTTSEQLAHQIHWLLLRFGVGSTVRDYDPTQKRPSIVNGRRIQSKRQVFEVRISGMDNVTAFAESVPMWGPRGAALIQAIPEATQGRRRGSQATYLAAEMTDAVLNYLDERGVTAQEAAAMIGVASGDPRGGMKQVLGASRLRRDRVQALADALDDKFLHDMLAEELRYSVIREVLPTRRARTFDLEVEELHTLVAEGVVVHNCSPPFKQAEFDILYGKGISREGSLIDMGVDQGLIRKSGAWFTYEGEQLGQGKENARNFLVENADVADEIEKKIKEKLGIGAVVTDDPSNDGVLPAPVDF
# Galanin receptor type 3 = target: T5, Galanin receptor type 3 (Homo sapiens, UniProt O60755); experiment: Fluorescence-based cell-based primary high throughput dose response assay to identify antagonists of the Galanin Receptor 3 (GalR3).; format: functional
# T5 sequence (O60755 whole entry): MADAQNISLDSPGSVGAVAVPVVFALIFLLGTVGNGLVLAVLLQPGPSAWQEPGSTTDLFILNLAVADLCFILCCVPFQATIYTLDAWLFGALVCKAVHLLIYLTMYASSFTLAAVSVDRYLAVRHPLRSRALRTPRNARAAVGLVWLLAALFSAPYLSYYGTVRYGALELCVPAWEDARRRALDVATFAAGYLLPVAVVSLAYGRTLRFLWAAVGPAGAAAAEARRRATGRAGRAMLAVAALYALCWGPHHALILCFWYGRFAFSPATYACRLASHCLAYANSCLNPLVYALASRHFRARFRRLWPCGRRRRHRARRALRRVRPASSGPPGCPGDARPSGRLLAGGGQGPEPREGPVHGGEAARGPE
# cells = format: functional, cell-based; settings: HEK-CNG
# Cytochrome P450 2C19 = Cytochrome P450 2C19 (Homo sapiens, UniProt P33261); experiment: Cytochrome panel assay with activity outcomes. Panel member name: p450-cyp2c19 Compounds with AC50 equal or less than 10 uM are considered active; format: functional; settings: read-out: AC50
# Cytochrome P450 1A2 = target: T6, Cytochrome P450 1A2 (Homo sapiens, UniProt P05177);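 note: PubChem cytochrome P450 panel assay, CYP1A2 panel member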
# T6 sequence (P05177 whole entry): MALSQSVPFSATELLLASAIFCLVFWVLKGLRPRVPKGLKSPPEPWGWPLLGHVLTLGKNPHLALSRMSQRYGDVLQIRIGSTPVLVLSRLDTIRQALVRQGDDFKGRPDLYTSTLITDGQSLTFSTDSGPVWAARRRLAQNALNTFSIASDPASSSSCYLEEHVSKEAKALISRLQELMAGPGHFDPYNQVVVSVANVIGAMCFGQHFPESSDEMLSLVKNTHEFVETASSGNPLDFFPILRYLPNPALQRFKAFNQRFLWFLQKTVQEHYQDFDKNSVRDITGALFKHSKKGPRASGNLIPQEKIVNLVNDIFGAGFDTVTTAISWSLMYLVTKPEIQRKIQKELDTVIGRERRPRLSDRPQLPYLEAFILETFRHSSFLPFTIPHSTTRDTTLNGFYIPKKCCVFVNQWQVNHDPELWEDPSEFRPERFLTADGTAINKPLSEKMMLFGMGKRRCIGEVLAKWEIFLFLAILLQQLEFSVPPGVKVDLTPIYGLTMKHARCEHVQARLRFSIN
# Cytochrome P450 3A4 = Cytochrome P450 3A4 (Homo sapiens, UniProt P08684);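 note: CYP3A4 tested as one member of a cytochrome P450 panel screen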
# Chain of Cytochrome P450 3A4 (P08684 whole entry): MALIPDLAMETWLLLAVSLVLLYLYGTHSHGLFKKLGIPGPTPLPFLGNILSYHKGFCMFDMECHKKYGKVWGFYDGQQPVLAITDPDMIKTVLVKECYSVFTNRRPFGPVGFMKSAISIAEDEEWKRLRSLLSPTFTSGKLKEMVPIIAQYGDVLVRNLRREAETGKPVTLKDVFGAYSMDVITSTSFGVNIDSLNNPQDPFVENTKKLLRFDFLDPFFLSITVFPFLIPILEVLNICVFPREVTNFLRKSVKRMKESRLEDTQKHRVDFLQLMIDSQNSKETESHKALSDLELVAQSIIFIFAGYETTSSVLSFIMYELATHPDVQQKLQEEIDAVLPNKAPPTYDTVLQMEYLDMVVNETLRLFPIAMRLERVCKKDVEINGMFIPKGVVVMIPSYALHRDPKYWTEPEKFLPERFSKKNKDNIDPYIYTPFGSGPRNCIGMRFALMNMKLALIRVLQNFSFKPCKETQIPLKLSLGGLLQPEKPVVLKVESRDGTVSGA
# Chain of Cytochrome P450 2D6 (P10635 whole entry): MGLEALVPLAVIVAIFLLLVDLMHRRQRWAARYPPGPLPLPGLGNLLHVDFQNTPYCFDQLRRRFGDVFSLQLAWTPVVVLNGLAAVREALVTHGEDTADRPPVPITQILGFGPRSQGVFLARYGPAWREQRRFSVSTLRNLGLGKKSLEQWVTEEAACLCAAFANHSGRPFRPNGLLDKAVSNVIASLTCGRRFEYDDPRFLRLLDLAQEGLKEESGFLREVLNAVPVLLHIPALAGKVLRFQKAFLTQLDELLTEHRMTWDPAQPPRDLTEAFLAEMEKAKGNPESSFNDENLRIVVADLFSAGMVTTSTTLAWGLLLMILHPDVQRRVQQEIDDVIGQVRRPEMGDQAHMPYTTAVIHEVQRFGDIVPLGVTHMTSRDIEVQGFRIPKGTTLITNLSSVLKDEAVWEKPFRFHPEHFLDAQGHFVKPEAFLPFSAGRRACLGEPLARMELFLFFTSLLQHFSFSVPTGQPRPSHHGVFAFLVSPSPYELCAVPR
# Chain of Cytochrome P450 2C19 (P33261 whole entry): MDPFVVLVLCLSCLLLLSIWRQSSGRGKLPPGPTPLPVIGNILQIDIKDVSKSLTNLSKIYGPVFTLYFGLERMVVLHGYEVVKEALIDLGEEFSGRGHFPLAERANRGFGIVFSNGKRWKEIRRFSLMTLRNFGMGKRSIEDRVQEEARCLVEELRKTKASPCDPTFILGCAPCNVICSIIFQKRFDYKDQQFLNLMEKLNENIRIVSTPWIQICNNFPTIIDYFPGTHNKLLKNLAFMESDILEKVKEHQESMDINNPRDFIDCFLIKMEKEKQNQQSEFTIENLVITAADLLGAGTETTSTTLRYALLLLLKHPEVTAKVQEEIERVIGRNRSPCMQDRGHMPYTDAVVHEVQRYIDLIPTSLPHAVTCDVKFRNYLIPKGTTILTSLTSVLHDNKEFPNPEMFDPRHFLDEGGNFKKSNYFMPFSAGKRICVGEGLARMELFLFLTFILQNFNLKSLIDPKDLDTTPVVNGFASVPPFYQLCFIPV
compound,measurement,setting,value
O=C(Nc1ccc(Br)c2ccccc12)c1ccc2ccccc2c1O,EC50,HEK293 [1],0.79 µM (active)
same,IC50,HEK293 [2],2.6 µM (active)
same,IC50,HEK293 [3],13.7 µM (active)
same,IC50,HEK293 [4],1.91 µM (active)
COc1ccc(-c2nn3c(C4CCCCC4)nnc3s2)cc1OC,EC50,[5],15.5 µM (active)
same,EC50,[6],18.1 µM (active)
same,EC50,[7],13.5 µM (active)
same,EC50,HEK293 [8],> 59.7 µM (inactive)
same,EC50,HEK293 [9],> 59.7 µM (inactive)
c1cncc(CNCc2cccnc2)c1,AC50,Cytochrome P450 2D6,inconclusive
O=S(=O)(Nc1c(O)ccc2ccccc12)c1cccc2ccccc12,EC50,[10],15.7 µM (active)
same,IC50,CHO-K1,56.9 µM (inactive)
same,IC50,[11],39.2 µM (inactive)
same,IC50,[12],2.85 µM (active)
same,IC50,[13],13.1 µM (inactive)
same,AC50,[14],4.4 µM (active)
same,EC50,Protein RecA,1.77 µM (active)
COc1ccc(NS(=O)(=O)c2ccc(NC(=O)c3ccc(CN4CCOCC4)cc3)cc2)cc1,EC50,HEK293 [1],4.22 µM (active)
same,IC50,HEK293 [2],5.35 µM (active)
same,IC50,HEK293 [3],> 20 µM (inactive)
same,IC50,HEK293 [4],7.65 µM (active)
same,IC50,Galanin receptor type 3,2.94 µM (active)
same,EC50,cells,> 29.9 µM (inactive)
CCc1ccc(NC(=O)CCn2nc(C)c(S(=O)(=O)N3CCCCC3)c2C)cc1,EC50,HEK293 [8],> 59.7 µM (inactive)
same,EC50,HEK293 [9],> 59.7 µM (inactive)
O=C1C=CC(O)C2(CO)OC12 (stereo unspecified),EC50,HEK293 [8],> 59.6 µM (inactive)
same,EC50,HEK293 [9],> 59.6 µM (inactive)
CC(C)C(=O)N/N=C/c1ccc(OCc2ccccc2)cc1,AC50,Cytochrome P450 2C19,10 µM (inconclusive)
same,AC50,Cytochrome P450 1A2,15.8 µM (inconclusive)
same,AC50,Cytochrome P450 2D6,inconclusive
same,AC50,Cytochrome P450 3A4,inconclusive

# Source: ChEMBL document CHEMBL1201862, “PubChem BioAssay data set” (2004)
